Patent US8247211B2, “Glycopeptide antibiotics” (American Cyanamid Company, priority 2001, dated 2012)
Values after ≈ are worked out from the molar mass of the structure shown.

Tests used:
Assay in all cases: In vitro antibacterial evaluation: minimum inhibitory concentration (MIC), broth dilution method
Type in all cases: cell-based
Enterococcus sp. = settings: 18 hours at 35° C.
How it was run: (§1)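 Using Muller-Hinton II […] and an inoculum of 5×10^5 CFU/mL, antibiotic dilutions from 64 down to 0.06 μg/mL were tested following NCCLS M7-A2. The MIC is the lowest concentration inhibiting growth, including in methicillin-, penicillin- or vancomycin-resistant clinical isolates.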

Escherichia coli = settings: 18 hours at 35° C.
How it was run: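 Susceptibility determined by NCCLS-recommended broth dilution (M7-A2), Muller-Hinton II […]. Concentration span 64-0.06 μg/mL, inoculum 5×10^5 CFU/mL. Isolates include strains resistant to methicillin, penicillin and/or vancomycin.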

Staphylococcus sp. = tested on: Staphylococcus sp.
How it was run: as §1

Streptococcus sp. = settings: 18 hours at 35° C.
How it was run: as §1

[1] = broth dilution, inoculum 5×10^5 CFU/mL

- MIC Enterococcus avium (GC 4558) (Enterococcus sp.; Enterococcus avium (GC 4558)): 64 µg/mL (≈ 44.9 µM)
- MIC Enterococcus faecalis (ATCC 29212) (Enterococcus sp.; Enterococcus faecalis (ATCC 29212)): >64 µg/mL
- MIC Enterococcus faecalis (GC 2242) (Enterococcus sp.; Enterococcus faecalis (GC 2242)): >64 µg/mL
- MIC Enterococcus faecalis (GC 2691) (Enterococcus sp.; Enterococcus faecalis (GC 2691)): >64 µg/mL
- MIC Enterococcus faecalis (GC 3059) (Enterococcus sp.; Enterococcus faecalis (GC 3059)): >64 µg/mL
- MIC Enterococcus faecalis (GC 4552) (Enterococcus sp.; Enterococcus faecalis (GC 4552)): >64 µg/mL
- MIC Enterococcus faecalis (GC 4553) (Enterococcus sp.; Enterococcus faecalis (GC 4553)): 64 µg/mL (≈ 44.9 µM)
- MIC Enterococcus faecalis (GC 4554) (Enterococcus sp.; Enterococcus faecalis (GC 4554)): >64 µg/mL
- MIC Enterococcus faecalis (GC 6189) (Enterococcus sp.; Enterococcus faecalis (GC 6189)): >64 µg/mL
- MIC Enterococcus faecium (GC 2243) (Enterococcus sp.; Enterococcus faecium (GC 2243)): >64 µg/mL
- MIC Enterococcus faecium (GC 4556) (Enterococcus sp.; Enterococcus faecium (GC 4556)): >64 µg/mL
- MIC Enterococcus faecium (GC 4557) (Enterococcus sp.; Enterococcus faecium (GC 4557)): 64 µg/mL (≈ 44.9 µM)
- MIC Enterococcus avium (GC 4558) (Enterococcus sp.; [1]): 64 µg/mL (≈ 44.9 µM)
- MIC Enterococcus faecalis (ATCC 29212) (Enterococcus sp.; [1]): >64 µg/mL
- MIC Enterococcus faecalis (GC 2242) (Enterococcus sp.; [1]): >64 µg/mL
- MIC Enterococcus faecalis (GC 2691) (Enterococcus sp.; [1]): >64 µg/mL
- MIC Enterococcus faecalis (GC 3059) (Enterococcus sp.; [1]): >64 µg/mL
- MIC Enterococcus faecalis (GC 4552) (Enterococcus sp.; [1]): >64 µg/mL
- MIC Enterococcus faecalis (GC 4553) (Enterococcus sp.; [1]): 64 µg/mL (≈ 44.9 µM)
- MIC Enterococcus faecalis (GC 4554) (Enterococcus sp.; [1]): >64 µg/mL
- MIC Enterococcus faecalis (GC 6189) (Enterococcus sp.; [1]): >64 µg/mL
- MIC Enterococcus faecium (GC 2243) (Enterococcus sp.; [1]): >64 µg/mL
- MIC Enterococcus faecium (GC 4556) (Enterococcus sp.; [1]): >64 µg/mL
- MIC Enterococcus faecium (GC 4557) (Enterococcus sp.; [1]): 64 µg/mL (≈ 44.9 µM)
- MIC Escherichia coli (ATCC 25922) (Escherichia coli; Escherichia coli (ATCC 25922)): >64 µg/mL
- MIC Escherichia coli (GC 4559) (Escherichia coli; Escherichia coli (GC 4559)): >64 µg/mL
- MIC Escherichia coli (GC 4560) (Escherichia coli; Escherichia coli (GC 4560)): 32 µg/mL (≈ 22.4 µM)
- MIC Staphylococcus aureus (ATCC 29213) (Staphylococcus sp.; strain ATCC 29213): >64 µg/mL
- MIC Staphylococcus aureus (GC 1131) (Staphylococcus sp.; strain GC 1131): >64 µg/mL
- MIC Staphylococcus aureus (GC 3051) (Staphylococcus sp.; strain GC 3051): 64 µg/mL (≈ 44.9 µM)
- MIC Staphylococcus aureus (GC 3053) (Staphylococcus sp.; strain GC 3053): >64 µg/mL
- MIC Staphylococcus aureus (GC 4541) (Staphylococcus sp.; strain GC 4541): 64 µg/mL (≈ 44.9 µM)
- MIC Staphylococcus aureus (GC 4542) (Staphylococcus sp.; strain GC 4542): 64 µg/mL (≈ 44.9 µM)
- MIC Staphylococcus aureus-SMITH (GC 4543) (Staphylococcus sp.; strain GC 4543): 64 µg/mL (≈ 44.9 µM)
- MIC Staphylococcus aureus (GC 4544) (Staphylococcus sp.; strain GC 4544): 64 µg/mL (≈ 44.9 µM)
- MIC Staphylococcus aureus (GC 4545) (Staphylococcus sp.; strain GC 4545): 64 µg/mL (≈ 44.9 µM)
- MIC Coagulase Negative Staphylococcus (GC 4547) (Staphylococcus sp.; strain GC 4547): 64 µg/mL (≈ 44.9 µM)
- MIC Coagulase Negative Staphylococcus (GC 4548) (Staphylococcus sp.; strain GC 4548): 64 µg/mL (≈ 44.9 µM)
- MIC Coagulase Negative Staphylococcus (GC 4549) (Staphylococcus sp.; strain GC 4549): 64 µg/mL (≈ 44.9 µM)
- MIC Coagulase Negative Staphylococcus (GC 4551) (Staphylococcus sp.; strain GC 4551): 64 µg/mL (≈ 44.9 µM)
- MIC Streptococcus agalactiae (GC 4564) (Streptococcus sp.; Streptococcus agalactiae (GC 4564)): >64 µg/mL
- MIC Streptococcus pneumoniae (ATCC 6301) (Streptococcus sp.; Streptococcus pneumoniae (ATCC 6301)): 64 µg/mL (≈ 44.9 µM)
- MIC Streptococcus pneumoniae (GC 1894) (Streptococcus sp.; Streptococcus pneumoniae (GC 1894)): 32 µg/mL (≈ 22.4 µM)
- MIC Streptococcus pneumoniae (GC 4565) (Streptococcus sp.; Streptococcus pneumoniae (GC 4565)): >64 µg/mL
- MIC Streptococcus pyogenes (GC 4563) (Streptococcus sp.; Streptococcus pyogenes (GC 4563)): 64 µg/mL (≈ 44.9 µM)
- MIC Streptococcus agalactiae (GC 4564) (Streptococcus sp.; [1]): >64 µg/mL
- MIC Streptococcus pneumoniae (ATCC 6301) (Streptococcus sp.; [1]): 64 µg/mL (≈ 44.9 µM)
- MIC Streptococcus pneumoniae (GC 1894) (Streptococcus sp.; [1]): 32 µg/mL (≈ 22.4 µM)
- MIC Streptococcus pneumoniae (GC 4565) (Streptococcus sp.; [1]): >64 µg/mL
- MIC Streptococcus pyogenes (GC 4563) (Streptococcus sp.; [1]): 64 µg/mL (≈ 44.9 µM)
SMILES: N=C1NCC(C(O)C2NC(=O)C(CC3CCC(OC4OC(CO)C(OC5OC6COC7(OC6C(O)C5O)C5CC6CC(C5)CC7C6)C(O)C4O)CC3)NC(=O)C(CC3CCCCC3)NC(=O)CNC(=O)C(CO)NC(=O)C(C(O)C3CNC(=N)N3C3OC(CO)C(O)C(O)C3O)NC2=O)N1 (stereo not drawn) [Example 223]
- MIC Staphylococcus haemolyticus (GC 4546) (Staphylococcus sp.; strain GC 4546): 64 µg/mL (≈ 44.9 µM)
